PubChem BioAssay AID1421 (Emory University Molecular Libraries Screening Center, 2008)
Active and inactive are the calls of the source. The rule behind the calls is not given here.

What follows are compounds tested against Prostaglandin E2 receptor EP2 subtype (Homo sapiens) (UniProt P43116) (assay: compounds shifting PGE2 potency at EP2 – cell-based, human EP2, PGE2 EC50 shift, dose response (AID 1421)). Conditions: EP2-expressing cells, PGE2 EC50 shift by compound.
Chain of Prostaglandin E2 receptor EP2 subtype (Homo sapiens) (P43116 whole entry, looked up): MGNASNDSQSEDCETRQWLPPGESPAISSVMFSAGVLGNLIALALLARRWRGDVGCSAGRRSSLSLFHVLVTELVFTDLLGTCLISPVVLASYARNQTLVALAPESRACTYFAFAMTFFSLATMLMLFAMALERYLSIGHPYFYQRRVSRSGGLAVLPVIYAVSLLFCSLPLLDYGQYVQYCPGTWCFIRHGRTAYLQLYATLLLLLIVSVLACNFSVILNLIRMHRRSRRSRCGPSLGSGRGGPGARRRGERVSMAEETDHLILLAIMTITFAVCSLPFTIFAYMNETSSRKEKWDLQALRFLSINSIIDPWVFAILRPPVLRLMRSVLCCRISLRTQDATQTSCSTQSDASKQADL

| SMILES | outcome |
| --- | --- |
| CC(C)Oc1nc(-c2ccccc2O)nc2ccccc12 | active |
| CC(C)Sc1cc(N2CCOCC2)nc(-c2ccccc2)n1 | active |
| CC12CCC(C(=O)N(CSC(=S)N/N=C\c3ccccc3Cl)C1=O)C2(C)C (stereo unspecified) | active |
| CCOC(=O)c1c(NC(=O)CN2CCCCC2)sc(C)c1C | active |
| Cn1cccc1/C=C1\CC(C(C)(C)C)C/C(=C\c2cccn2C)C1=O (stereo unspecified) | active |
| COc1ccc(-c2nc(NC(C)=O)sc2-c2ccccc2)cc1 | active |
| CC(C)Sc1cc(N2CCOCC2)nc(-c2ccc(Cl)cc2)n1 | active |
| O=C(Nc1ccccc1N1CCCCC1)c1cnccn1 | active |
| N#CC1=C(N)S[C@H](C(=O)C23CC4CC(CC(C4)C2)C3)[C@H]1c1ccncc1 | active |
| CCc1ccccc1NC(=O)/C(=C/c1ccccc1)c1ccccc1 | active |

Same assay, conditions: EP2-expressing cells, PGE2 EC50 shift by compound; measured here: PGE2 EC50 at 6.7 uM compound

| SMILES | PGE2 EC50 with compound |
| --- | --- |
| C=CCSc1nc2ccccc2c(=O)n1Cc1ccccc1 | 0.72 nM |
| Cc1ccc(NP(=O)(Oc2ccccc2F)Oc2ccccc2F)cc1C | 1.35 nM |
| CCOC(=O)Cc1csc(NC(=O)c2cc(=O)c3ccccc3o2)n1 | 1.36 nM |
| O=C(c1ccc(Cl)cc1)c1oc2ccccc2c1CS(=O)c1ccccc1 (stereo unspecified) | 0.87 nM |
| CSc1nc(Oc2ccccc2)c2sccc2n1 | 0.93 nM |
| O=C(O)c1ccc(C(=O)O)c(C(=O)Nc2ccc3c(c2)Cc2ccccc2-3)c1 | 2.77 nM |
| CCCCOC(=O)CSc1nc(N)c(C#N)c(-c2ccc(OCC)cc2)c1C#N | 1.39 nM |
| C[N+]1(C)CCOC(O)(c2ccc(-c3ccc(C4(O)C[N+](C)(C)CCO4)cc3)cc2)C1 (stereo unspecified) | 0.14 nM |
| CCSc1ccccc1C(=O)n1nnc2ccccc21 | 1.77 nM |
| CCOC(=O)C1CCCN(C(=O)c2ccc(C)cc2O)C1 (stereo unspecified) | 1.44 nM |
| CC(C)Oc1nc(-c2ccccc2O)nc2ccccc12 | 1.01 nM |
| Cc1ccccc1NC(=O)/C(=C/c1ccccc1)c1ccccc1 | 1.23 nM |
| O=c1[nH]c(=S)c2c(n1-c1ccccc1)CCC2 | 1.46 nM |
| CC(C)Sc1cc(N2CCOCC2)nc(-c2ccccc2)n1 | 1.22 nM |
| O=C(Nc1ccccc1-c1nc2ccccc2s1)c1ccc(Br)o1 | 1.02 nM |
| CCOC(=O)c1c(NC(=O)CSC(=S)N(C)C)sc(C)c1C | 0.86 nM |
| CC12CCC(C(=O)N(CSC(=S)N/N=C\c3ccccc3Cl)C1=O)C2(C)C (stereo unspecified) | 1.7 nM |
| O=C1CC(O)(c2ccccc2)C(c2ccccc2)=C1c1ccccc1 (stereo unspecified) | 0.87 nM |
| CCOC(=O)c1cnc2c(c(C)nn2C)c1Oc1ccc(Cl)cc1 | 1.29 nM |
| N#Cc1c(NC(=O)CSc2n[nH]c(Cc3ccccc3)n2)oc(-c2ccccc2)c1-c1ccccc1 | 1.4 nM |
| Brc1cccc(-c2nnc(SCc3ccon3)n2-c2ccccc2)c1 | 1.06 nM |
| CC1=CC(C)(C)N(S(=O)(=O)c2ccc(C)cc2)c2cc(C)ccc21 | 1.17 nM |

| SMILES | PGE2 EC50 with compound |
| --- | --- |
| CCOc1ccc(OCC)c(NC(=O)CN2CCN(c3ccc(C)cc3C)CC2)c1 | 0.88 nM |
| O=C(Nc1ccccc1N1CCCCC1)c1ccc2nccnc2c1 | 1.35 nM |
| COc1ccc(OC)c(C2=Nn3c(nnc3-c3ccco3)SC2)c1 | 0.93 nM |
| CCOC(=O)c1sc(NC(=O)CN2C(=O)c3cccc4cccc(c34)C2=O)nc1C | 1.37 nM |
| CCCCc1nc(N2CCOCC2)c(C#N)c2c1CCCC2 | 0.98 nM |
| Cc1nc2ccccc2nc1SCC(=O)N1CCC(C)CC1 | 2.77 nM |
| CCC1Oc2ccc(C)cc2N(Cc2cccc(C)c2)C1=O (stereo unspecified) | 1.24 nM |
| COc1cccc2[nH]c3c(N4CCCC(C)C4)ncnc3c12 (stereo unspecified) | 23.2 nM |
| O=C1COc2ccccc2N1Cc1ccccc1Cl | 1.38 nM |
| c1ccn(-c2ncnc3sc4c(c23)CCCC4)c1 | 1.45 nM |
| CCCCOc1ccccc1NC(=O)c1scc2c1OCCO2 | 0.32 nM |
| O=C1c2ccccc2OC2(C=Cc3ccccc3O2)N1Cc1ccccc1 (stereo unspecified) | 0.31 nM |
| COc1cc2cc(Br)cc(Br)c2nc1C | 2.62 nM |
| Nc1cccc(OCc2nc(N)nc(N)c2-c2ccc(Cl)cc2)c1 | 1.24 nM |
| CCOc1ccc(-n2nc3c(=S)[nH]nc(C)c3c2C)cc1 | 3.04 nM |
| O=C(c1cccs1)c1cn(Cc2ccccc2Cl)c2ccccc12 | 2.63 nM |
| CCOC(=O)c1c(NC(=O)CN2CCCCC2)sc(C)c1C | 0.89 nM |
| CC(Cc1ccccc1)NC(=O)C1(c2ccccc2)CCOCC1 (stereo unspecified) | 1.2 nM |
| Cc1ccc(C2CC(c3cccs3)=NN2C(=O)c2ccc(Br)o2)cc1 (stereo unspecified) | 0.75 nM |
| COc1ccc(Cl)cc1-n1c(C)ccc1C | 1.06 nM |
| N#CC1(Cc2ccccc2Cl)c2ccccc2C=CN1C(=O)c1ccccc1 (stereo unspecified) | 1.54 nM |
| Cc1cc(C)c(C#N)c(Oc2ccccc2Br)n1 | 1.01 nM |

| SMILES | PGE2 EC50 with compound |
| --- | --- |
| COc1ccc(C2=NN(C(=O)c3cccs3)C(O)(C(F)(F)F)C2)cc1 (stereo unspecified) | 3 nM |
| CCCCc1nnc(SCCSc2nnc(CCCC)n2N)n1N | 1 nM |
| COc1cccc(-c2nc(N3CC(C)CC(C)C3)c3ccccc3n2)c1O (stereo unspecified) | 1.33 nM |
| COc1ccc(-c2nnc(N3CCC(C)CC3)c3ccccc23)cc1 | 1.15 nM |
| Cn1cccc1/C=C1\CC(C(C)(C)C)C/C(=C\c2cccn2C)C1=O (stereo unspecified) | 1.44 nM |
| Cc1ccc(-n2c(Cc3cccc4ccccc34)n[nH]c2=S)c(C)c1 | 0.68 nM |
| C[C@]12CCC(=O)C=C1CCC1C2CC[C@@]2(C)C1CC[C@@H]2O (stereo partly specified) | 1.55 nM |
| CCCOC(=O)c1ccc(NC(=O)c2cn(CC)c3nc(C)ccc3c2=O)cc1 | 1.57 nM |
| O=C(Cc1ccc(Cl)cc1)Nc1ccccc1Sc1ccccc1 | 1.07 nM |
| COc1ccc(-c2nc(NC(C)=O)sc2-c2ccccc2)cc1 | 1.01 nM |
| Cc1nc(NC(C)c2ccccc2)c2c3c(sc2n1)CCC3 (stereo unspecified) | 0.78 nM |
| O=C(NCCC1=CCCCC1)c1cccc2c1C(=O)N(C1CCCCC1)C2 | 1.18 nM |
| COc1ccc(C(=O)O)cc1NC(=S)NC(=O)c1ccc(-c2ccc(Cl)cc2)o1 | 0.36 nM |
| CCN1C(c2ccccc2)C(C)C(=O)C(C)C1c1ccccc1 (stereo unspecified) | 0.85 nM |
| CCc1ccc(Nc2oc(C)cc(=O)c2C(C)=O)cc1 | 1.55 nM |
| CCOC(=O)CC(=O)CSc1nc(-c2ccc3c(c2)OCO3)cc(C(F)(F)F)c1C#N | 1.24 nM |
| CCCCOc1ccccc1Cn1c(=O)oc2ccccc21 | 0.81 nM |
| O=S1(=O)N=C(N(CCO)/N=C/C=C/c2ccccc2)c2ccccc21 | 2.08 nM |
| COC(=O)c1cc2ccsc2n1Cc1cccc(F)c1 | 0.95 nM |
| COC(=O)C1=C(C)N(C)C(C)=C(C(=O)OC)C1c1cccc(Br)c1 | 0.97 nM |
| Cc1cc(O)ccc1C1(c2ccc(O)cc2C)OC(=O)c2ccccc21 | 0.55 nM |
| O=c1c2ccccc2c(-c2ccccc2)nn1Cc1ccccc1 | 2.8 nM |

| SMILES | PGE2 EC50 with compound |
| --- | --- |
| COc1ccc(OC)c(-c2cnc(OC(C)(C)C)nc2OC(C)(C)C)c1 | 1.35 nM |
| CN(Cc1cc(Br)cc(Br)c1O)Cc1c(O)ccc2ccccc12 | 1.22 nM |
| C=CCCC1(C)C(=O)N(c2ccccc2)c2ccccc21 (stereo unspecified) | 1.2 nM |
| CCCn1c(=O)[nH]c(=O)c2c1nc(-c1ccccc1OC(F)F)n2CCOC | 1.08 nM |
| c1ccc(CCc2cccnc2)nc1 | 1.62 nM |
| Cc1cccc(Oc2sc(C(=O)c3ccccc3)c(N)c2C#N)c1 | 1.51 nM |
| CC(C)(C)n1nnnc1C(c1ccncc1)N(Cc1ccccc1)Cc1ccco1 (stereo unspecified) | 1.03 nM |
| CN(c1ccccc1)C1CCCCC1NS(=O)(=O)c1ccc(Cl)cc1 (stereo unspecified) | 2.43 nM |
| CSc1nnc(-c2cc3c(s2)-c2ccccc2CC3)o1 | 1.15 nM |
| Cc1ccccc1Cn1c(Cc2ccccc2)nc2ccccc21 | 2.76 nM |
| S=c1[nH]nc(Cc2ccccc2)n1Cc1ccco1 | 2.65 nM |
| Cc1cc([N+](=O)[O-])c(C)c(Br)c1C | 1.11 nM |
| O=c1cc2c(nn1Cc1c(Cl)cccc1Cl)-c1ccccc1CC2 | 0.79 nM |
| CC(=O)C1CC[C@H]2C3CC[C@H]4C[C@H](O)CC[C@]4(C)C3CC[C@]12C (stereo partly specified) | 0.89 nM |
| CCOC(=O)c1ccccc1NC(=O)C1COc2ccccc2O1 (stereo unspecified) | 0.66 nM |
| N#Cc1sc2nc(C3CC3)cc(-c3ccc(Cl)cc3)c2c1N | 0.81 nM |
| CC(C)Sc1cc(N2CCOCC2)nc(-c2ccc(Cl)cc2)n1 | 1.02 nM |
| Clc1ccc(Cl)c(Nc2ccnc(SCc3ccccc3)n2)c1 | 0.64 nM |
| CCOC(=O)c1c(-c2cccs2)csc1NC(=O)COC(=O)c1c(C)noc1C | 0.32 nM |
| O=C1CCC(C(=O)OCC(=O)N2N=C3/C(=C/c4ccccc4)CCCC3C2c2ccccc2)N1 (stereo unspecified) | 1.47 nM |
| COC(=O)c1c(NC(=O)Cc2cccs2)sc2c1CCC(C)C2 (stereo unspecified) | 0.94 nM |
| Cc1sc(NC(=O)c2cccs2)c(C(=O)OC(C)C)c1C | 2.6 nM |

| SMILES | PGE2 EC50 with compound |
| --- | --- |
| CCOC(=O)C1=C(C)NC(C)=C(C(=O)OC)C1c1cccc(Cl)c1Cl (stereo unspecified) | 0.69 nM |
| CCC(C)(C)c1ccc(OCC(=O)N(C)C)c(C(C)(C)CC)c1 | 5.61 nM |
| COc1ccccc1CN(C)CC(=O)Nc1ccccc1-c1ccccc1 | 1.43 nM |
| CN(c1ccccc1)c1nc(N2CCCC2)nc(-n2ccnc2)n1 | 0.79 nM |
| c1ccc(-c2ccccc2-c2nc(-c3cccnc3)no2)cc1 | 2.82 nM |
| CCOP(=O)(OCC)c1nc(-c2ccc(F)cc2)oc1NCc1ccccc1 | 1.09 nM |
| Cc1ccc(CN2C(=O)/C(=C\c3ccc(C(=O)NCc4cccnc4)cc3)Oc3ccccc32)cc1 | 0.95 nM |
| O=C(Nc1ccccc1Oc1ccccc1)c1ccccc1F | 1.07 nM |
| CCOC(=O)c1sc2nc3c(SCC(=O)O)cc(C(=O)c4cc(F)ccc4O)cn3c(=O)c2c1C | 0.6 nM |
| CC1=CCc2c(cc3oc(C)cc(=O)c3c2O)OC1 | 1.3 nM |
| CN(/N=C\c1ccc(O)c(O)c1)c1nc(-c2ccccc2)cc(-c2ccccc2)n1 | 1.22 nM |
| Cc1ccc(C(C)C)c(OCc2ccc(-c3nnco3)cc2)c1 | 2.51 nM |
| O=C(Nc1ccccc1N1CCCCC1)c1cnccn1 | 0.93 nM |
| N#CC1=C(N)S[C@H](C(=O)C23CC4CC(CC(C4)C2)C3)[C@H]1c1ccncc1 | 0.96 nM |
| O=C(Nc1ccccc1N1CCCCC1)c1cccc(F)c1 | 0.95 nM |
| Fc1ccc(Sc2nc(-c3ccccc3)nnc2C(F)(F)F)cc1 | 0.94 nM |
| CCc1ccccc1NC(=O)/C(=C/c1ccccc1)c1ccccc1 | 1.14 nM |
| CC(NC(c1ccccc1)c1ccccc1)C(=O)N1CCCc2ccccc21 (stereo unspecified) | 1.25 nM |
